Measurements published in US20130259884A1, “PEPTIDES” ([…] SL, priority 2010, published 2013).
Where a SMILES comes first, the peptide text is derived from it.

Assay: Water solubility of peptides when preparing stock solutions
Type: physicochemical
Conditions: stock solution in sterile distilled water or 100% DMSO; read-out: solubility of peptide (water soluble or water insoluble, dissolved in DMSO)
How it was run: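 Water-soluble peptides from water stocks and insoluble ones from 100% DMSO stocks (50 mg/ml), each diluted to 2 mg/ml in water then into media. Added singly or as pools to 350,000 PBMC in anti-IL-4 ELISPOT wells at 10 μg/ml final per peptide. Identically diluted media-only controls.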

SMILES | solubility
CC(C)C[C@H](NC(=O)[C@H](Cc1ccccc1)NC(=O)[C@H](CO)NC(=O)[C@H](CC(N)=O)NC(=O)[C@H](CCC(=O)O)NC(=O)CNC(=O)[C@@H](NC(=O)[C@H](CO)NC(=O)[C@H](Cc1ccc(O)cc1)NC(=O)[C@H](Cc1c[nH]c2ccccc12)NC(=O)[C@H](CCCCN)NC(=O)[C@H](Cc1c[nH]cn1)NC(=O)[C@@H](N)CC(=O)O)C(C)C)C(=O)N[C@@H](CC(=O)O)C(=O)N[C@@H](Cc1ccccc1)C(=O)O [Peptide L10-2.01, DHKWYSVGENSFLDF] (H-DHKWYSVGENSFLDF-OH) | > 2500 µg/mL
CC[C@H](C)[C@H](NC(=O)[C@H](CC(=O)O)NC(=O)[C@H](CC(=O)O)NC(=O)[C@H](CO)NC(=O)[C@@H](NC(=O)[C@H](CCCCN)NC(=O)[C@H](CCC(N)=O)NC(=O)[C@@H](N)CCCCN)C(C)C)C(=O)N[C@H](C(=O)N[C@@H](Cc1ccc(O)cc1)C(=O)N[C@H](C(=O)N[C@@H](C)C(=O)N[C@H](C(=O)N[C@@H](C)C(=O)N[C@H](C(=O)O)[C@@H](C)O)[C@@H](C)O)C(C)C)[C@@H](C)O [Peptide L10-3, KQKVSDDITYVATAT] (H-KQKVSDDITYVATAT-OH) | > 2500 µg/mL
